Key:
[1] = tested on: NCI-H358 cells (KRAS G12C); test: Cell viability assay (Cell Counting Kit-8), KRAS G12C; assay type: cell-based; details: Homo sapiens, NCI-H358, 72 hrs
In short: (§1)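 Cells seeded overnight at 5,000/well (NCI-H358) or 2,000/well (AGS, SW620), then exposed to compound for 72 hrs at 0.5% DMSO final. CCK-8 read as OD450 minus OD650 after 2 hrs; IC50 from 4-parameter sigmoidal fit.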

AGS cells (KRAS G12D) = test: Cell viability assay (Cell Counting Kit-8), KRAS G12D; assay type: cell-based; details: Homo sapiens, 72 hrs
In short: as §1

[2] = tested on: Miapaca-2 KRAS G12C + T58I cells; test: Stable KRAS mutant cell line viability assay (CellTiter-Glo), G12C + T58I; assay type: cell-based; details: Homo sapiens, MIA PaCa-2, 72 h, Miapaca-2 mutant cells, 3 d
From the text: (§2) The aim of the study was to determine the potency and efficacy of compounds for cell proliferation using CellTiter-Glo® (CTG) Luminescent Cell Viability Assay (Promega Corp., Madison, WI). We cloned […] KRAS^G12C variant sequences with secondary mutations (V8A, V9Y, S17E, T58I, A59T, S65W, R68S, D69P, M72I, D92R, H95N, Y96D, Q99F, Q99W, Y96H, and F156L) into the Miapaca-2. Totally 14 stable Miapaca-2 mutant cell lines were established through lentivirus infection. For the cell viability assay, cells were dosed with compounds in a 9-point dose-response using a 4 fold dilution series at a top dose of 10 μM. KRAS mutant cells were maintained in DMEM+10% FBS+2.5% HI Horse serum+1% PS+1 μg/mL Puromycin and seeded into 96-well plates at 800-1,500 cells per well 24 h before compound addition and then incubated with compound for 3 d before assaying viability (CellTiter-Glo, Promega). Assays were performed in biological duplicates. Nonlinear regression curves were fitted using Xfit. IC50 (absolute IC50) is the dose at which the estimated viability is 50% relative to untreated wells.

[3] = tested on: phosphorylation of ERK, KRAS G12C in NCI-H358 cells; test: pERK inhibition assay, KRAS G12C in NCI-H358 cells; assay type: cell-based, human; details: Homo sapiens, NCI-H358, 4 hours
In short: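 NCI-H358 (G12C), AGS (G12D) and SW620 (G12V) cells in RPMI-1640/10% FBS, plated overnight, then treated 4 h with compound (0.5% DMSO final). Fixed, methanol-permeabilized; phospho-ERK detected by in-cell ELISA (anti-pERK, HRP secondary, TMB, OD450). IC50 from 4-parameter sigmoidal fit.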

[4] = tested on: Miapaca-2 KRAS G12C + F156L cells; test: Stable KRAS mutant cell line viability assay (CellTiter-Glo), G12C + F156L; assay type: cell-based; details: Homo sapiens, MIA PaCa-2, 72 h, Miapaca-2 mutant cells, 3 d
From the text: as §2

[5] = tested on: Miapaca-2 KRAS G12C + Q99W cells; test: Stable KRAS mutant cell line viability assay (CellTiter-Glo), G12C + Q99W; assay type: cell-based; details: Homo sapiens, MIA PaCa-2, 72 h, Miapaca-2 mutant cells, 3 d
From the text: as §2

KRAS G12V-BRAF complex = KRAS G12V-BRAF complex (Homo sapiens (Human), UniProt P01116+P62937, G12V); test: KRAS-BRAF with CYPA (500 nM) interaction assay (TR-FRET), G12V; assay type: biochemical
Chain of KRAS G12V-BRAF complex (P01116-2 other isoform, or with tags, fused parts or gaps G12V): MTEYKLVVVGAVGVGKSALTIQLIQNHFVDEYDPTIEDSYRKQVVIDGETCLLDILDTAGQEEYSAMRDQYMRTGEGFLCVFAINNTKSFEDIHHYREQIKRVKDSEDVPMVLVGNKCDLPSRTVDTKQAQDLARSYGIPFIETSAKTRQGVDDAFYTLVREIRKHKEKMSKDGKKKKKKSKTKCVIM
Chain of KRAS G12V-BRAF complex (P62937 whole entry): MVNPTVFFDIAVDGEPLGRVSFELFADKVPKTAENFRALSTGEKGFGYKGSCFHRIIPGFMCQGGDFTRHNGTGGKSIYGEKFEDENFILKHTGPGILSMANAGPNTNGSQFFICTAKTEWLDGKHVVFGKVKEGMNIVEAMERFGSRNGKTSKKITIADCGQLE
In short: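 TR-FRET read of compound- or compound-CYPA-driven disruption of BRAF binding by KRAS G12C, G12D or G12V, with CYPA at 500 nM. Compounds tested as 16-point 3-fold dilutions from 10 μM final, incubated 3 hours. Ex320/Em 665/615 nm ratio drop relative to DMSO wells marks disruption.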

[6] = tested on: Miapaca-2 KRAS G12C + D92R cells; test: Stable KRAS mutant cell line viability assay (CellTiter-Glo), G12C + D92R; assay type: cell-based; details: Homo sapiens, MIA PaCa-2, 72 h, Miapaca-2 mutant cells, 3 d
From the text: as §2

SMILES: CO[C@@H](C)c1ncc(N2CCN(CC(F)(F)F)CC2)cc1-c1c2c3cc(ccc3n1CC(F)(F)F)-c1csc(n1)C[C@H](NC(=O)[C@H](C(C)C)N(C)C(=O)N1CCOCC1)C(=O)N1CCC[C@H](N1)C(=O)OCC(C)(C)C2 (atropisomer, axis not shown; (M)) [Example 6]
- IC50 [1]: 5 nM
- IC50 (AGS cells (KRAS G12D)): 20 nM
- IC50 [2]: 7 nM
- IC50 [3]: 2 nM
- IC50 [4]: 8 nM
- IC50 [5]: 7 nM
- IC50 (KRAS G12V-BRAF complex): 61 nM
- IC50 [6]: 5 nM
